Reference: article PMC9598282 (Antibiotics, 2022)

Experiments:
Experiment in all cases: microbe, parasite or virus in culture
E. coli ATCC 25922 = format: cell-based, Escherichia coli; set-up: key to FIC index antibiotic + GCol / FIC index antibiotic + GPMB: sum of FICs; ≤0.5 synergy, 0.5–4 additivity, >4 antagonism; details: for MIC: Escherichia coli, ATCC25922, 18 h, read-out: MIC alone; for MIC / MIC alone: agent alone, one value per checkerboard plate
Experimental: (§1) The adjuvant properties of the guanidinylated polymyxins were evaluated using the checkerboard assay as previously described. The bacterial solution was prepared as described in the antimicrobial susceptibility assay. The antibiotic of interest and the adjuvant were serially diluted two-fold along the x- and y-axis on a 96-well plate, respectively, resulting in varying concentrations of both agents in each well. Equal volumes of bacterial solution were added to the designated wells. The well consisting of bacterial solution served as the positive control, while the wells containing only media served as the negative control. The plate was then incubated at 37 °C for 18 h. After incubation, an Emax Plus microplate reader (Molecular Devices, Union City, CA, USA) was used to measure the OD at a wavelength of 590 nm to confirm the turbidity. The fractional inhibitory concentration (FIC) index was then determined to establish the relationship between the antibiotic and adjuvant. The FIC index corresponds to the sum of the FICs of the antibiotic and adjuvant. The FIC of each agent is calculated by dividing its MIC when it is used in combination by its MIC when used alone. FIC indices ≤0.5, 0.5 < x ≤ 4 and >4 indicate synergy, additivity and antagonism, respectively.

A. baumannii ATCC 17978 = format: cell-based, Acinetobacter baumannii; details: for MIC: Acinetobacter baumannii, ATCC17978, 18 h, read-out: MIC alone; for MIC / MIC alone: agent alone, one value per checkerboard plate
Experimental: as §1

P. aeruginosa PAO1 = format: cell-based, Pseudomonas aeruginosa; details: for MIC: Pseudomonas aeruginosa, PAO1, 18 h, read-out: MIC alone
Experimental: as §1

[1] = agent alone, one value per checkerboard plate

SMILES	Absolute MIC of antibiotic at 2 μg/mL GCol (E. coli ATCC 25922) [mg/L]	Absolute MIC of antibiotic at 2 μg/mL GPMB (E. coli ATCC 25922) [mg/L]	MIC (E. coli ATCC 25922) [mg/L]	Absolute MIC of antibiotic at 2 μg/mL GCol (A. baumannii ATCC 17978) [mg/L]	Absolute MIC of antibiotic at 2 μg/mL GPMB (A. baumannii ATCC 17978) [mg/L]	MIC (A. baumannii ATCC 17978) [mg/L]	Absolute MIC of antibiotic at 4 μg/mL GCol (P. aeruginosa PAO1) [mg/L]	Absolute MIC of antibiotic at 4 μg/mL GPMB (P. aeruginosa PAO1) [mg/L]	MIC (P. aeruginosa PAO1; [1]) [mg/L]	FIC index antibiotic + GCol (E. coli ATCC 25922)	FIC index antibiotic + GPMB (E. coli ATCC 25922)	Fold-potentiation of antibiotic (E. coli ATCC 25922; at 2 μg/mL GCol)	Fold-potentiation of antibiotic (E. coli ATCC 25922; at 2 μg/mL GPMB)	FIC index antibiotic + GPMB (A. baumannii ATCC 17978)	Fold-potentiation of antibiotic (A. baumannii ATCC 17978; at 2 μg/mL GCol)	Fold-potentiation of antibiotic (A. baumannii ATCC 17978; at 2 μg/mL GPMB)	Fold-potentiation of antibiotic (P. aeruginosa PAO1; at 4 μg/mL GCol)	Fold-potentiation of antibiotic (P. aeruginosa PAO1; at 4 μg/mL GPMB)	also measured
O=C(N[C@H](CO)[C@H](O)c1ccc([N+](=O)[O-])cc1)C(Cl)Cl [Chloramphenicol]	0.5	0.5	2	64	32	64	4	2	32	0.375	0.5	4	4	0.563	1	2	8	16	–
CN(C)c1ccc(O)c2c1C[C@H]1C[C@H]3[C@H](N(C)C)C(O)=C(C(N)=O)C(=O)[C@@]3(O)C(O)=C1C2=O [Minocycline]	0.25	0.125	1	0.125	0.063	0.125	0.5	0.5	16	0.281	0.25	4	8	0.5	1	4	32	32	MIC alone (A. baumannii ATCC 17978): 0.25 mg/L
COc1c(N2C[C@@H]3CCCN[C@@H]3C2)c(F)cc2c(=O)c(C(=O)O)cn(C3CC3)c12 [Moxifloxacin]	0.008	0.004	0.016	0.063	0.063	0.063	–	–	1	–	–	–	–	–	–	–	–	–	–
CO[C@@H]1[C@@H](OC(N)=O)[C@@H](O)[C@H](Oc2ccc3c(O)c(NC(=O)c4ccc(O)c(CC=C(C)C)c4)c(=O)oc3c2C)OC1(C)C [Novobiocin]	0.125	0.25	128	0.5	0.063	8	128	4	1020	0.02	0.012	1024	256	0.07	16	256	8	256	MIC alone (E. coli ATCC 25922): 64 mg/L
NC[C@H]1O[C@H](O[C@H]2[C@H](O)[C@@H](O[C@H]3O[C@H](CO)[C@@H](O)[C@H](N)[C@H]3O)[C@H](N)C[C@@H]2N)[C@H](N)C[C@@H]1O [Tobramycin]	1	1	2	1	2	1	2	2	2	0.516	1.031	2	1	1	1	1	1	1	FIC index antibiotic + GPMB (P. aeruginosa PAO1): 1.016

Further compounds by falling MIC (A. baumannii ATCC 17978), results first:

Absolute MIC of antibiotic at 2 μg/mL GCol (E. coli ATCC 25922) [mg/L]	Absolute MIC of antibiotic at 2 μg/mL GPMB (E. coli ATCC 25922) [mg/L]	MIC (E. coli ATCC 25922) [mg/L]	Absolute MIC of antibiotic at 2 μg/mL GCol (A. baumannii ATCC 17978) [mg/L]	Absolute MIC of antibiotic at 2 μg/mL GPMB (A. baumannii ATCC 17978) [mg/L]	MIC (A. baumannii ATCC 17978) [mg/L]	Absolute MIC of antibiotic at 4 μg/mL GCol (P. aeruginosa PAO1) [mg/L]	Absolute MIC of antibiotic at 4 μg/mL GPMB (P. aeruginosa PAO1) [mg/L]	MIC (P. aeruginosa PAO1; [1]) [mg/L]	SMILES	FIC index antibiotic + GCol (E. coli ATCC 25922)	FIC index antibiotic + GPMB (E. coli ATCC 25922)	Fold-potentiation of antibiotic (E. coli ATCC 25922; at 2 μg/mL GCol)	Fold-potentiation of antibiotic (E. coli ATCC 25922; at 2 μg/mL GPMB)	FIC index antibiotic + GPMB (A. baumannii ATCC 17978)	Fold-potentiation of antibiotic (A. baumannii ATCC 17978; at 2 μg/mL GCol)	Fold-potentiation of antibiotic (A. baumannii ATCC 17978; at 2 μg/mL GPMB)	Fold-potentiation of antibiotic (P. aeruginosa PAO1; at 4 μg/mL GCol)	Fold-potentiation of antibiotic (P. aeruginosa PAO1; at 4 μg/mL GPMB)	also measured
4	8	64	512	64	1020	8	8	1020	CCC[C@@H]1C[C@@H](C(=O)N[C@@H]([C@H]2O[C@H](SC)[C@H](O)[C@@H](O)[C@H]2O)[C@H](C)Cl)N(C)C1 [Clindamycin]	0.125	0.313	16	16	0.375	2	16	128	256	MIC alone (E. coli ATCC 25922): 128 mg/L; FIC index antibiotic + GPMB (P. aeruginosa PAO1): 0.254; MIC alone (P. aeruginosa PAO1; [1]): 2048 mg/L
0.25	0.125	64	32	2	512	256	32	1020	C=C[C@]1(C)C[C@@H](OC(=O)CO)[C@]2(C)[C@H](C)CC[C@]3(CCC(=O)[C@H]32)[C@@H](C)[C@@H]1O [Pleuromutilin]	0.066	0.035	256	512	0.129	16	256	4	32	–
16	8	128	128	64	256	128	32	1020	CC(=O)NC[C@H]1CN(c2ccc(N3CCOCC3)c(F)c2)C(=O)O1 [Linezolid]	0.25	0.25	8	16	0.375	2	4	8	32	–
0.125	0.063	2	64	64	64	1	1	4	CCN1CCN(C(=O)N[C@@H](C(=O)N[C@@H]2C(=O)N3[C@@H]2SC(C)(C)[C@@H]3C(=O)O)c2ccccc2)C(=O)C1=O [Piperacillin]	0.188	0.281	16	32	0.375	1	1	4	4	–
–	–	–	0.125	0.063	0.125	1	0.5	8	C[C@H]1c2cccc(O)c2C(=O)C2=C(O)[C@]3(O)C(=O)C(C(N)=O)=C(O)[C@@H](N(C)C)[C@@H]3[C@@H](O)[C@@H]21 [Doxycycline]	–	–	–	–	–	–	–	–	–	MIC alone (A. baumannii ATCC 17978): 0.063 mg/L
0.008	0.032	–	0.125	0.063	0.125	0.0625	0.03125	0.5	C[C@H]1COc2c(N3CCN(C)CC3)c(F)cc3c(=O)c(C(=O)O)cn1c23 [Levofloxacin]	0.531	0.563	2	2	1	1	1	8	8	MIC alone (A. baumannii ATCC 17978): 0.063 mg/L; FIC index antibiotic + GPMB (P. aeruginosa PAO1): 0.375
